Results reported in US20250351832A1, “PHYTOCHEMICALS AS BIOPESTICIDES AND BIOSTIMULANTS” (KAY BEE BIO ORGANICS PVT. LTD., priority 2024, published 2025).
Entries after “also recorded” stand apart in the source; their conditions may differ. Like-named read-outs stand apart in the source and are kept apart here.

Tests used:
Spodoptera litura [1] = settings: Spodoptera litura 3rd instar on cabbage plants, dose 1 ml/gm/lit. spray; for % Mortality at 72 Hrs.: 72 hrs after application; for % Corrected Mortality at 72 Hrs.: corrected for water control
Mite [2] = settings: mite on okra plants, green house, dose 1 ml/gm/lit. spray; for % Mortality at 48 Hrs. / Total No. of dead insect at 48 Hrs.: 48 hrs after application; for % Corrected Mortality at 48 Hrs.: corrected for water control
Thrips [3] = settings: thrips on cotton plants, greenhouse, dose 1 ml/gm/lit. spray; for % Corrected Mortality at 48 Hrs.: corrected for water control
Thrips [4] = settings: Thrips on cotton leaves; dose 1 ml/gm/lit.; 10 insects/treatment; 48 hrs after application
Mealy Bug [5] = settings: Mealy Bug on cotton leaves, dose 1 ml/gm/lit., 48 Hrs.; for Total No. of dead insect at 48 Hrs.: 10 insects/treatment, 4 replications; for % Corrected Mortality at 48 Hrs.: corrected for water control
tomato seedlings = experiment: Response of tomato plants, greenhouse growth (Ex. 30); format: in vivo; settings: tomato seedlings, dose 1 ml/gm/lit; for Plant Height 5th Day / Stem Girth 5th Day / CCI 5th Day: 5th day after application; for Plant Height 10th Day / Stem Girth 10th Day / CCI 10th Day: 10th day after application; for Plant Height % Increase over pre on 10th Day / Stem Girth % Increase over pre on 10th Day / CCI % Increase over pre on 10th Day / Root Length (cm) 10th Day / Root Length % Increase over control: 10th day; for Root Length % Increase over control: vs water control
Helicoverpa armigera [6] = settings: Helicoverpa armigera on okra fruits, dose 1 ml/gm/lit., 72 Hrs.; for Total No. of dead insect at 72 Hrs.: 10 insects/treatment, 4 replications; for % Corrected Mortality at 72 Hrs.: corrected for water control
Spodoptera litura [7] = experiment: whole plant or invertebrate; settings: 72 h
Aphid [8] = settings: Aphids on cotton plants, green house; dose 1 ml/gm/lit.; 10 insects/plant, 10 plants/treatment; 48 hrs
Aphid [9] = experiment: whole plant or invertebrate; settings: 48 h
Alternaria alternata [10] = experiment: Alternaria leaf spot/blight on inoculated tomato plants (Ex. 28); format: in vivo; settings: tomato plants, Alternaria alternata; after 7 days; dose 1 ml/gm/lit
Mite [11] = settings: Dose 1 ml/gm/lit.; for Total No. of dead insect at 48 Hrs.: 10 insects/treatment, 4 replications, okra leaves
Helicoverpa armigera [12] = settings: Helicoverpa armigera 3rd instar on chickpea plants, dose 1 ml/gm/lit. spray; for % Mortality at 72 Hrs.: 72 hrs after application; for % Corrected Mortality at 72 Hrs.: corrected for water control
Mealy Bug [13] = settings: mealy bug on cotton plants, green house, dose 1 ml/gm/lit. spray; for % Mortality at 48 Hrs. / Total No. of dead insect at 48 Hrs.: 48 hrs after application; for % Corrected Mortality at 48 Hrs.: corrected for water control
Thrips [14] = experiment: whole plant or invertebrate; settings: in Gossypium hirsutum, 48 h
Alternaria alternata [15] = experiment: In vitro poisoned food technique against fungus (Ex. 20); format: cell-based; settings: poisoned food technique, PDA medium, dose 1 ml/gm/lit., after seven days; for inhibition of growth at 1 mL or g/L: vs untreated control, read-out: % Inhibition of growth
Spodoptera litura [16] = settings: Spodoptera litura on castor leaves; dose 1 ml/gm/lit.; 10 insects/treatment; 72 hrs after application
Aphid [17] = settings: Dose 1 ml/gm/lit.; for Total No. of dead insect at 48 Hrs.: 10 insects/treatment, 4 replications, cotton leaves
chili seedlings = experiment: Response of chili plants, greenhouse growth (Ex. 31); format: in vivo; settings: chili seedlings, dose 1 ml/gm/lit; for CCI 5th Day / Plant Height (cm) 5th Day: 5th day after application; for CCI 10th Day / Plant Height (cm) 10th Day: 10th day after application; for CCI % Increase over pre on 10th Day / Plant Height % Increase over pre on 10th Day / Root Lenght (cm) 10th Day / Stem Girth % Increase over pre on 10th Day / Root Lenght % Increase over control: 10th day; for Root Lenght % Increase over control: vs water control
[18] = cited from earlier work; for Phytotonic Effect: Table 13, effect on plants, descriptive
[19] = read-out: % Corrected Mortality at 72 Hrs.
[20] = read-out: % Mortality at 72 Hrs.
[21] = read-out: % Corrected Mortality at 48 Hrs.
[22] = read-out: % Mortality at 48 Hrs.
[23] = Table 13, descriptive, no test described

## CC1=CCC2CC1C2(C)C (stereo not drawn) [Alpha-pinene]
Spodoptera litura [1]
  % Mortality at 72 Hrs.: 55.00%
  % Corrected Mortality at 72 Hrs.: 52.63%
Mite [2]
  % Mortality at 48 Hrs.: 32.50%
  Total No. of dead insect at 48 Hrs.: 32.50
  % Corrected Mortality at 48 Hrs.: 28.95%
Thrips [3]; 48 hrs after application
  Total No. of dead insect at 48 Hrs.: 42.50
Thrips [3]
  % Corrected Mortality at 48 Hrs.: 36.11%
Thrips [4]
  Total No. of dead insect at 48 Hrs.: 4.25
Mealy Bug [5]
  Total No. of dead insect at 48 Hrs.: 5.25
  % Mortality at 48 Hrs.: 52.50%
  % Corrected Mortality at 48 Hrs.: 50.00%
Tomato seedlings
  Plant Height 5th Day: 7.24 cm
  Stem Girth 5th Day: 2.01 mm
  Plant Height 10th Day: 7.74 cm
  Stem Girth 10th Day: 2.22 mm
  Plant Height % Increase over pre on 10th Day: 26.47%
  Stem Girth % Increase over pre on 10th Day: 55.24%
  CCI 5th Day: 13.65
  CCI % Increase over pre on 10th Day: 25.17%
  Root Length (cm) 10th Day: 4.30 cm
  CCI 10th Day: 14.32
  Root Length % Increase over control: 29.14%
Helicoverpa armigera [6]
  Total No. of dead insect at 72 Hrs.: 7.00
  % Mortality at 72 Hrs.: 70.00%
  % Corrected Mortality at 72 Hrs.: 70.00%
Spodoptera litura [7]; [19]
  mortality at 1 mL or g/L: 47.4%
Spodoptera litura [7]; [20]
  mortality at 1 mL or g/L: 50%
Aphid [8]
  Total No. of dead insect at 48 Hrs.: 60.00
Aphid [9]; [21]
  mortality at 1 mL or g/L: 52.9%
Aphid [9]; [22]
  mortality at 1 mL or g/L: 60%
Alternaria alternata [10]
  % Disease reduction over Control: 42.15%
Mite [11]
  Total No. of dead insect at 48 Hrs.: 4.00
Mite [11]; 48 hrs
  % Corrected Mortality at 48 Hrs.: 35.14%
  % Mortality at 48 Hrs.: 40.00%
Helicoverpa armigera [12]
  % Mortality at 72 Hrs.: 67.50%
  % Corrected Mortality at 72 Hrs.: 67.50%
Mealy Bug [13]
  % Mortality at 48 Hrs.: 60.00%
  Total No. of dead insect at 48 Hrs.: 60.00
  % Corrected Mortality at 48 Hrs.: 55.56%
Thrips [14]; [21]
  mortality at 1 mL or g/L: 34.3%
Thrips [14]; [22]
  mortality at 1 mL or g/L: 42.5%
Alternaria alternata [15]
  Mean colony Diameter (mm): 71.50 mm
  inhibition of growth at 1 mL or g/L: 18.8%
Spodoptera litura [16]
  Total No. of dead insect at 72 Hrs.: 5.00
Aphid [17]
  Total No. of dead insect at 48 Hrs.: 5.75
  % Corrected Mortality at 48 Hrs.: 51.43%
  % Mortality at 48 Hrs.: 57.50%
Chili seedlings
  CCI 5th Day: 11.40
  Plant Height (cm) 5th Day: 6.35 cm
  CCI % Increase over pre on 10th Day: 36.59%
  Plant Height % Increase over pre on 10th Day: 51.74%
  Root Lenght (cm) 10th Day: 3.23 cm
  Stem Girth % Increase over pre on 10th Day: 41.80%
  CCI 10th Day: 12.58
  Plant Height (cm) 10th Day: 6.54 cm
  Root Lenght % Increase over control: 17.88%
[18]
  Phytotonic Effect: Trigger plant; also recorded: Boost chlorophyll

## CC12CCC(CC1=O)C2(C)C (stereo not shown) [Camphor]
Spodoptera litura [1]
  % Mortality at 72 Hrs.: 45.00%
  % Corrected Mortality at 72 Hrs.: 42.11%
Mite [2]
  % Mortality at 48 Hrs.: 65.00%
  Total No. of dead insect at 48 Hrs.: 65.00
  % Corrected Mortality at 48 Hrs.: 63.16%
Thrips [3]; 48 hrs after application
  % Mortality at 48 Hrs.: 42.50%
  Total No. of dead insect at 48 Hrs.: 42.50
Thrips [3]
  % Corrected Mortality at 48 Hrs.: 36.11%
Thrips [4]
  Total No. of dead insect at 48 Hrs.: 4.50
Mealy Bug [5]
  Total No. of dead insect at 48 Hrs.: 5.25
  % Mortality at 48 Hrs.: 52.50%
  % Corrected Mortality at 48 Hrs.: 50.00%
Tomato seedlings
  Plant Height 5th Day: 6.34 cm
  Stem Girth 5th Day: 1.90 mm
  Plant Height 10th Day: 6.96 cm
  Stem Girth 10th Day: 2.06 mm
  Plant Height % Increase over pre on 10th Day: 27.94%
  Stem Girth % Increase over pre on 10th Day: 53.50%
  CCI 5th Day: 13.64
  CCI % Increase over pre on 10th Day: 26.67%
  Root Length (cm) 10th Day: 3.58 cm
  CCI 10th Day: 14.82
  Root Length % Increase over control: 7.76%
Helicoverpa armigera [6]
  Total No. of dead insect at 72 Hrs.: 6.00
  % Mortality at 72 Hrs.: 60.00%
  % Corrected Mortality at 72 Hrs.: 60.00%
Spodoptera litura [7]; [19]
  mortality at 1 mL or g/L: 39.5%
Spodoptera litura [7]; [20]
  mortality at 1 mL or g/L: 42.5%
Aphid [8]
  Total No. of dead insect at 48 Hrs.: 60.00
Aphid [9]; [21]
  mortality at 1 mL or g/L: 52.9%
Aphid [9]; [22]
  mortality at 1 mL or g/L: 60%
Alternaria alternata [10]
  % Disease reduction over Control: 46.28%
Mite [11]
  Total No. of dead insect at 48 Hrs.: 6.75
Mite [11]; 48 hrs
  % Corrected Mortality at 48 Hrs.: 64.86%
Helicoverpa armigera [12]
  % Mortality at 72 Hrs.: 55.00%
  % Corrected Mortality at 72 Hrs.: 55.00%
Mealy Bug [13]
  % Mortality at 48 Hrs.: 67.50%
  Total No. of dead insect at 48 Hrs.: 67.50
  % Corrected Mortality at 48 Hrs.: 63.89%
Thrips [14]; [21]
  mortality at 1 mL or g/L: 37.1%
Thrips [14]; [22]
  mortality at 1 mL or g/L: 45%
Alternaria alternata [15]
  Mean colony Diameter (mm): 60.00 mm
  inhibition of growth at 1 mL or g/L: 31.8%
Spodoptera litura [16]
  Total No. of dead insect at 72 Hrs.: 4.25
Aphid [17]
  Total No. of dead insect at 48 Hrs.: 5.75
  % Corrected Mortality at 48 Hrs.: 51.43%
  % Mortality at 48 Hrs.: 57.50%
Chili seedlings
  CCI 5th Day: 11.80
  Plant Height (cm) 5th Day: 5.70 cm
  CCI % Increase over pre on 10th Day: 25.81%
  Plant Height % Increase over pre on 10th Day: 56.20%
  Root Lenght (cm) 10th Day: 3.47 cm
  Stem Girth % Increase over pre on 10th Day: 44.32%
  CCI 10th Day: 13.21
  Plant Height (cm) 10th Day: 6.30 cm
  Root Lenght % Increase over control: 26.68%
[18]; [23]
  Acaricidal Activity - Mode of action: Deteriorating respiratory
  Antifungal Activity - Mode of action: Repel fungal infections
  Antioxidant Activity - Mode of action: Free radical scavenging
  Bactericidal Activity - Mode of action: Inhibit microbial growth,
  Insecticidal Activities - Mode of action: Strong contact toxicity
  Nematicidal Activity - Mode of action: Strong activity against
  Virucidal Activity - Mode of action: Control the spread of viral
[18]
  Phytotonic Effect: Strong
